Here are results for 20 compounds from patent US20230122344A1, “ANTAGONISTS OF THE MUSCARINIC ACETYLCHOLINE RECEPTOR M4” (Vanderbilt University, priority 2019, published 2023).

For the assay, the target named is T1, Human M4 (Homo sapiens, UniProt P08173).
T1 construct: expressed in transfected cells; host or cells: CHO-K1 (ATCC), co-transfected with chimeric G protein Gqi5
T1 sequence (P08173 1-479): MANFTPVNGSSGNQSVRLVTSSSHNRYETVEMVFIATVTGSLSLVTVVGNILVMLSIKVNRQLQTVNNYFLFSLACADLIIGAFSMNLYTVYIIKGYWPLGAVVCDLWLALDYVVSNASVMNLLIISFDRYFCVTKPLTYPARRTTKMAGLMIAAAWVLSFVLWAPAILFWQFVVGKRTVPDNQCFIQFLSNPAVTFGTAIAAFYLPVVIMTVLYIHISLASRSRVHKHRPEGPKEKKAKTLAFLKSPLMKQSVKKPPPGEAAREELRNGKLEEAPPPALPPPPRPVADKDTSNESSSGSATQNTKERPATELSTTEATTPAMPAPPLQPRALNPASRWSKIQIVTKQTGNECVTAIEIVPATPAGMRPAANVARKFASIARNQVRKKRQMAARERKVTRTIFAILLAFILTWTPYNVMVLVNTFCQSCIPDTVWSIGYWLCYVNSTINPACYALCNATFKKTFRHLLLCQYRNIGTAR
The assay can be described thus: mAChR M4 cell-based functional assay (calcium flux, antagonism of EC80 acetylcholine response). The settings on record: M4/Gqi5/CHO-K1 cells; for remaining activity at 30 µM: CHO-K1, % ACh maximum at 30 μM, read-out: Human M4 Emin; for pIC50: decrease of response elicited by EC80 acetylcholine. Summed up:
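CHO-K1 cells stably expressing human or rat M4 with Gqi5, Fluo-4 loaded; calcium measured by fluorescence ratio on FDSS. Compound added, then EC20 acetylcholine at 143 s and EC80 at 268 s; IC50 from decrease of EC80 response, four-parameter logistic fit.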
(A change in cytosolic calcium serves as a functional read-out for many receptors and channels.)

pIC50: −log10 of the molar value.

`[2H]C([2H])(C1CCOCC1)N1C[C@H]2C[C@H](Nc3nnc(-c4ccccc4)c(C)c3C(F)(F)F)C[C@H]2C1` [compound 76, (3aR,5s,6aS)-N-(5-methyl-6-phenyl-4-(trifluoromethyl)pyridazin-3-yl)-2-((tetrahydro-2H-pyran-4-yl)methyl-d2)octahydrocyclopenta[c]pyrrol-5-amine]: the remaining activity at 30 µM turned out to be 3% and the pIC50 is 7.92.

On to `COc1ccc(F)cc1-c1cc(C(F)F)c(N[C@H]2C[C@@H]3CN(CC4CCOCC4)C[C@@H]3C2)nn1` [compound 85, (3aR,5s,6aS)-N-(4-(difluoromethyl)-6-(5-fluoro-2-methoxyphenyl)pyridazin-3-yl)-2-((tetrahydro-2H-pyran-4-yl)methyl)octahydrocyclopenta[c]pyrrol-5-amine], for which the remaining activity at 30 µM was found to be 4% and the negative-log IC50 (pIC50) was 7.96.

In the case of `Fc1cc(F)c(F)c(-c2nnc(N[C@H]3C[C@@H]4CN(CC5CCCCO5)C[C@@H]4C3)cc2C(F)F)c1` (single isomer, unassigned) [compound 47], the pIC50 is 8.69. Besides, the “Human M4 Emin” value (% ACh maximum at 30 μM) came out at 2%.

Regarding `[2H]C([2H])(C1CCOCC1)N1C[C@H]2C[C@H](Nc3nnc(-c4cc(F)cc(F)c4F)c(C4CC4)c3C(F)(F)F)C[C@H]2C1` [compound 77, (3aR,5s,6aS)-N-(5-cyclopropyl-4-(trifluoromethyl)-6-(2,3,5-trifluorophenyl)pyridazin-3-yl)-2-((tetrahydro-2H-pyran-4-yl)methyl-d2)octahydrocyclopenta[c]pyrrol-5-amine], the remaining activity at 30 µM was 2% and the pIC50 is 7.08.

For the compound `COc1cc(-c2cccc(F)c2)nnc1N[C@H]1C[C@@H]2CN(CC3CCOCC3)C[C@@H]2C1` [compound 1, (3aR,5s,6aS)-N-(6-(3-fluorophenyl)-4-methoxypyridazin-3-yl)-2-((tetrahydro-2H-pyran-4-yl)methyl)octahydrocyclopenta[c]pyrrol-5-amine], the remaining activity at 30 µM worked out at 5% and the pIC50 is 7.97.

As for `Cc1c(-c2cc(C(F)F)c(N[C@H]3C[C@@H]4CN(CC5CCOCC5)C[C@@H]4C3)nn2)ccc2nn(C)cc12` [compound 84, (3aR,5s,6aS)-N-(4-(difluoromethyl)-6-(2,4-dimethyl-2H-indazol-5-yl)pyridazin-3-yl)-2-((tetrahydro-2H-pyran-4-yl)methyl)octahydrocyclopenta[c]pyrrol-5-amine], the remaining activity at 30 µM was 3% and the pIC50 was 9.05.

As for `Cc1c(-c2cccc(F)c2)nnc(N[C@H]2C[C@@H]3CN(CC4CCOCC4)C[C@@H]3C2)c1C#N` [compound 69, 6-(3-fluorophenyl)-5-methyl-3-(((3aR,5s,6aS)-2-((tetrahydro-2H-pyran-4-yl)methyl)octahydrocyclopenta[c]pyrrol-5-yl)amino)pyridazine-4-carbonitrile], the remaining activity at 30 µM stood at 3% and the pIC50 was 8.07.

On to `Fc1cc(F)c(F)c(-c2nnc(N[C@H]3C[C@@H]4CN(CC5CCCCC5)C[C@@H]4C3)cc2C(F)F)c1` [compound 53, (3aR,5s,6aS)-2-(cyclohexylmethyl)-N-(5-(difluoromethyl)-6-(2,3,5-trifluorophenyl)pyridazin-3-yl)octahydrocyclopenta[c]pyrrol-5-amine], for which the remaining activity at 30 µM came out at 2% and the pIC50 was 7.72.

For the compound `COc1cc(-c2cc3cn(C)nc3cc2F)nnc1N[C@H]1C[C@@H]2CN(CC3CCOCC3)C[C@@H]2C1` [compound 6, (3aR,5s,6aS)-N-(6-(6-fluoro-2-methyl-2H-indazol-5-yl)-4-methoxypyridazin-3-yl)-2-((tetrahydro-2H-pyran-4-yl)methyl)octahydrocyclopenta[c]pyrrol-5-amine], the remaining activity at 30 µM came to 4% and the pIC50 is 7.36.

With `[2H]C([2H])(C1CCOCC1)N1C[C@H]2C[C@H](Nc3nnc(-c4cc(F)cc(F)c4F)cc3C(C)(F)F)C[C@H]2C1` [compound 45, (3aR,5s,6aS)-N-(4-(1,1-difluoroethyl)-6-(2,3,5-trifluorophenyl)pyridazin-3-yl)-2-((tetrahydro-2H-pyran-4-yl)methyl-d2)octahydrocyclopenta[c]pyrrol-5-amine], the remaining activity at 30 µM came out at 3% and the pIC50 was 7.26.

`FC(F)c1cc(-c2ccccc2OC(F)(F)F)nnc1N[C@H]1C[C@@H]2CN(CC3CCOCC3)C[C@@H]2C1` [compound 86, (3aR,5s,6aS)-N-(4-(difluoromethyl)-6-(2-(trifluoromethoxy)phenyl)pyridazin-3-yl)-2-((tetrahydro-2H-pyran-4-yl)methyl)octahydrocyclopenta[c]pyrrol-5-amine]: the remaining activity at 30 µM was found to be 5% and the pIC50 was 7.72.

With `Fc1cc(F)c(F)c(-c2nnc(N[C@H]3C[C@@H]4CN(CCC5CCOCC5)C[C@@H]4C3)cc2C(F)F)c1` [compound 52, (3aR,5s,6aS)-N-(5-(difluoromethyl)-6-(2,3,5-trifluorophenyl)pyridazin-3-yl)-2-(2-(tetrahydro-2H-pyran-4-yl)ethyl)octahydrocyclopenta[c]pyrrol-5-amine], the remaining activity at 30 µM worked out at 2% and the pIC50 is 8.98.

Regarding `Fc1ccc(Cl)c(-c2nnc(N[C@H]3C[C@@H]4CN(CC5CCOCC5)C[C@@H]4C3)cc2C(F)F)c1` [compound 44, (3aR,5s,6aS)-N-(6-(2-chloro-5-fluorophenyl)-5-(difluoromethyl)pyridazin-3-yl)-2-((tetrahydro-2H-pyran-4-yl)methyl)octahydrocyclopenta[c]pyrrol-5-amine], the remaining activity at 30 µM is 2% and the pIC50 is 9.19.

Take `[2H]C(C)(c1ccccn1)N1C[C@H]2C[C@H](Nc3cc(C(F)F)c(-c4cc(F)cc(F)c4F)nn3)C[C@H]2C1` (stereo partly drawn) [compound 51, (3aR,5s,6aS)-N-(5-(difluoromethyl)-6-(2,3,5-trifluorophenyl)pyridazin-3-yl)-2-(1-(pyridin-2-yl)ethyl-1-d)octahydrocyclopenta[c]pyrrol-5-amine]: the remaining activity at 30 µM was found to be 2% and the pIC50 is 7.46.

For `[2H]C([2H])(C1CCOCC1)N1C[C@H]2C[C@H](Nc3nnc(-c4cc(F)cc(F)c4F)cc3C(C)(C)C)C[C@H]2C1` [compound 36, (3aR,5s,6aS)-N-(4-(tert-butyl)-6-(2,3,5-trifluorophenyl)pyridazin-3-yl)-2-((tetrahydro-2H-pyran-4-yl)methyl-d2)octahydrocyclopenta[c]pyrrol-5-amine], the remaining activity at 30 µM turned out to be 4% and the pIC50 was 5.99.

For `[2H]C([2H])(C1CCOCC1)N1C[C@H]2C[C@H](Nc3nnc(-c4cc(F)ccc4F)c(C)c3C(F)(F)F)C[C@H]2C1` [compound 75, (3aR,5s,6aS)-N-(6-(2,5-difluorophenyl)-5-methyl-4-(trifluoromethyl)pyridazin-3-yl)-2-((tetrahydro-2H-pyran-4-yl)methyl-d2)octahydrocyclopenta[c]pyrrol-5-amine], the remaining activity at 30 µM worked out at 3% and the pIC50 is 7.68.

Take `[2H]C([2H])(C1CCOCC1)N1C[C@H]2C[C@H](Nc3nnc(-c4cc(F)cc(F)c4F)cc3C3CC3)C[C@H]2C1` [compound 34, (3aR,5s,6aS)-N-(4-cyclopropyl-6-(2,3,5-trifluorophenyl)pyridazin-3-yl)-2-((tetrahydro-2H-pyran-4-yl)methyl-d2)octahydrocyclopenta[c]pyrrol-5-amine]: the remaining activity at 30 µM was 2% and the pIC50 was 8.30.

On to `OC1(CN2C[C@H]3C[C@H](Nc4cc(C(F)F)c(-c5cc(F)cc(F)c5F)nn4)C[C@H]3C2)CCCCC1` [compound 54, 1-(((3aR,5s,6aS)-5-((5-(difluoromethyl)-6-(2,3,5-trifluorophenyl)pyridazin-3-yl)amino)hexahydrocyclopenta[c]pyrrol-2(1H)-yl)methyl)cyclohexan-1-ol], for which the remaining activity at 30 µM was 1% and the pIC50 is 8.47.

As for `[2H]C([2H])(C1CCOCC1)N1C[C@H]2C[C@H](Nc3nnc(-c4cc(F)ccc4C)c(C)c3C)C[C@H]2C1` [compound 63, (3aR,5s,6aS)-N-(6-(5-fluoro-2-methylphenyl)-4,5-dimethylpyridazin-3-yl)-2-((tetrahydro-2H-pyran-4-yl)methyl-d2)octahydrocyclopenta[c]pyrrol-5-amine], the remaining activity at 30 µM amounted to 2% and the pIC50 is 9.04.

Consider `[2H]C([2H])(C1CCOCC1)N1C[C@H]2C[C@H](Nc3nnc(-c4cccc(F)c4)c(C)c3C)C[C@H]2C1` [compound 62, (3aR,5s,6aS)-N-(6-(3-fluorophenyl)-4,5-dimethylpyridazin-3-yl)-2-((tetrahydro-2H-pyran-4-yl)methyl-d2)octahydrocyclopenta[c]pyrrol-5-amine], for which the remaining activity at 30 µM was determined as 2% and the pIC50 was 9.15.

A word on the pIC50: it is the IC50 on a negative log10 scale, so that one unit is a factor of ten.
